Experiment [1] deals with P. aeruginosa isolated from the patient, resistant to phage OMKO1. As to the kind of experiment: MIC by eTest strip, patient isolate after evolved resistance to phage OMKO1. The format is cell-based, Pseudomonas aeruginosa. As for the experimental part: (§1) Phage OMKO1 was amplified on P. aeruginosa in liquid culture in conditions identical to the Serial passage assays. Following 12 hours of amplification, 100 μl of culture was plated on LB agar and incubated for 12 hours. Individual colony-forming units (CFUs) were then collected, and verified to be phage resistant by classic ‘spot tests’ (i.e., 10^7 PFU of phage OMKO1 was pipetted onto a lawn of each bacterial isolate to test whether the phage was capable of visibly clearing the lawn [indicating bacterial sensitivity to phage] versus incapable of clearing the lawn [indicating bacterial resistance to phage]).
(§2) Bacterial strains were grown overnight at 37° C. as described above. A 200 μL sample of the culture was then spread onto an LB agar plate, and allowed to dry for 10 minutes, followed by application of an eTestStrip (BioMerieux) for a test antibiotic. […] Each strain was tested in triplicate for each antibiotic.
(§3) P. aeruginosa isolated from the patient was subjected to Deep Sequencing (Next Generation Sequencing) on the Illumina HiSeq 2000 platform to confirm species identity and presence of genes known to be associated with efflux-pump mechanisms for resistance to antibiotics. Furthermore, a trade-off between phage OMKO1 sensitivity and antibiotic susceptibility was confirmed as per methods disclosed elsewhere herein (FIG. 5). Phage OMKO1 was sequenced also on the HiSeq 2000 platform and found to be in the PhiKZ-like virus genus.

Experiment [2] has as its system P. aeruginosa isolated from the patient, susceptible to phage OMKO1. Nature of the experiment: MIC by eTest strip, patient isolate before phage exposure. Format: cell-based, Pseudomonas aeruginosa. The method, then: as §2, §3
Experiment [3] deals with strain PA01 ΔoprM. As to the kind of experiment: Minimum inhibitory concentration (eTest strip) on knockout PA01 ΔoprM. Format: cell-based. To be noted: Pseudomonas aeruginosa. As for the experimental part:
as §2
(§4) The effects of phage resistance on sensitivity to the four drugs was tested in replicated assays with PA01 and PA14, as well as with three environmental strains (PAN, 1607, 1845) and three clinical isolates (PAPS, PASk, PADFU). In these assays, the phage-OMKO1 resistant strain was either a knockout mutant (ΔoprM derived from PA01), or an independently derived spontaneous mutant of the associated parental strain.

Experiment [4] relates to 72-hour-old P. aeruginosa biofilms. Nature of the experiment: Biofilm elimination assays on prosthetic materials. The following applies: single agent (antibiotics at 2×MIC).
The subject of experiment [5] is environmental and clinical P. aeruginosa strains. As to the kind of experiment: MIC trade-off assay, phage-resistant mutants of environmental and clinical strains. To be noted: majority of outcomes showing statistical significance. The format is cell-based, Pseudomonas aeruginosa.
Experiment [6] relates to strain ΔmexR (derived from PA01). As to the kind of experiment: Minimum inhibitory concentration (eTest strip) on control knockout ΔmexR. Format: cell-based. To be noted: Pseudomonas aeruginosa, average ± SD, phage-sensitive, over-expresses Mex systems. The method, then:
as §2
As a control for transposon insertion, strain ΔmexR, which was also derived from PA01, was examined. mexR, the repressor of MexAB-OprM and MexXY-OprM operons should not negatively alter phage sensitivity.

The test system of experiment [7] is environmental isolates (PAN, 1607, 1845). Nature of the experiment: MIC trade-off assay, phage-resistant mutants of environmental isolates. The format is cell-based, Pseudomonas aeruginosa. To be noted: phage-resistant mutant versus parental strain. The method, then:
as §1, §2, §4

Setting [8] is: Pseudomonas aeruginosa, read-out: MIC.
Where [9] appears, read: Dacron sections, 24 h treatment, regrowth OD600.

In brackets after ≈: the same amount, converted by molar mass. Read-outs that look alike come from different tables or passages of the source.

Experimental findings from patent US20190142881A1, “BACTERIOPHAGE COMPOSITIONS AND USES THEREOF” (priority 2016, published 2019) are described below.

Take `CC(C)(O/N=C(\C(=O)N[C@@H]1C(=O)N2C(C(=O)[O-])=C(C[n+]3ccccc3)CS[C@H]12)c1csc(N)n1)C(=O)O` [CAZ, Ceftazidime]: the MIC in experiment [1] (Pseudomonas aeruginosa) amounted to 0.35 µg/mL (≈ 0.64 µM); in experiment [2] (setting [8]), 1.67 µg/mL (≈ 3.05 µM); in experiment [3], 0.21 ± 0.144 µg/mL (≈ 0.384 µM); in experiment [6], 1.33 ± 0.035 µg/mL (≈ 2.44 µM). Also, the “elimination of 72-hour biofilms” value was “Neither ciprofloxacin nor ceftazidime at 2×MIC was sufficient to eliminate 72 hour biofilms” in experiment [4] (setting [9]), “unable to remove 72-hour biofilms” in experiment [4] (Gore-Tex sections), “neither antibiotic alone significantly removed 72-hour biofilms” in experiment [4] (felt pieces) and “not by antibiotics at 2×MIC” in experiment [4] (polypropylene suture). Besides, in experiment [5], the “change in drug sensitivity on phage resistance” value is recorded as “greater drug sensitivity”.

In the case of `O=C(O)c1cn(C2CC2)c2cc(N3CCNCC3)c(F)cc2c1=O` [CIP, Ciprofloxacin], the MIC in experiment [1] (Pseudomonas aeruginosa) came out at 0.014 µg/mL (≈ 0.0423 µM); in experiment [2] (setting [8]) it was 1.17 µg/mL (≈ 3.54 µM); in experiment [3], 0.016 µg/mL (≈ 0.0483 µM); in experiment [6], 32 µg/mL (≈ 96.6 µM). In addition, the “elimination of 72-hour biofilms” value was “Neither ciprofloxacin nor ceftazidime at 2×MIC was sufficient to eliminate 72 hour biofilms” in experiment [4] (setting [9]), “unable to remove 72-hour biofilms” in experiment [4] (Gore-Tex sections), “neither antibiotic alone significantly removed 72-hour biofilms” in experiment [4] (felt pieces) and “not by antibiotics at 2×MIC” in experiment [4] (polypropylene suture).

Turning to `CC[C@H]1OC(=O)[C@H](C)[C@@H](O[C@H]2C[C@@](C)(OC)[C@@H](O)[C@H](C)O2)[C@H](C)[C@@H](O[C@@H]2O[C@H](C)C[C@H](N(C)C)[C@H]2O)[C@](C)(O)C[C@@H](C)C(=O)[C@H](C)[C@@H](O)[C@]1(C)O` [EM, Erythromycin], the MIC is 4.67 µg/mL (≈ 6.36 µM) in experiment [3] and 256 ± 0.577 µg/mL (≈ 349 µM) in experiment [6]. In addition, the “change in antibiotic sensitivity on resistance to phage OMKO1” value in experiment [7] is reported as “increased sensitivity”.

On to `CN(C)[C@@H]1C(O)=C(C(N)=O)C(=O)[C@@]2(O)C(O)=C3C(=O)c4c(O)cccc4[C@@](C)(O)[C@H]3C[C@@H]12` [TET, Tetracycline], for which the MIC in experiment [3] worked out at 2 µg/mL (≈ 4.5 µM); in experiment [6], 256 µg/mL (≈ 576 µM).

Consider `NC[C@H]1O[C@H](O[C@H]2[C@H](O)[C@@H](O[C@H]3O[C@H](CO)[C@@H](O)[C@H](N)[C@H]3O)[C@H](N)C[C@@H]2N)[C@H](N)C[C@@H]1O` [tobramycin], for which the MIC in experiment [1] (Pseudomonas aeruginosa) was 3.67 µg/mL (≈ 7.84 µM); in experiment [2] (setting [8]), 11.3 µg/mL (≈ 24.2 µM).

Consider gentamicin, for which the MIC in experiment [1] (eTest strip, after evolved resistance to phage OMKO1) was 0.833 µg/mL; in experiment [2] it was 3.7 µg/mL.
